Laboratory results taken from patent US20100061994A1, “MEDICAL USES OF 39-DESMETHOXYRAPAMYCIN AND ANALOGUES THEREOF” (priority 2005, published 2010).

Assays:
[1] = Pharmacokinetic analysis Protocol 2 (blood and brain); format: in vivo, female Balb C mice; conditions: female, Balb C, mouse; for Kp: brain / whole blood; for AUC: whole blood, blood, 0-24 h
Protocol: To prepare the dosing solution, 5 mg test compound was dissolved in 100 μL ethanol resulting in a compound solution of 50 mg/mL. The solution was then diluted to 2 mg/mL by adding approximately 2.4 mL 0.15 M NaCl (0.9% w/v saline), 5% v/v Tween 20 and 5% v/v PEG 400 (final ethanol conc. 4% v/v).
A single dose of 10 mg/kg p.o. or 2 mg/kg i.v. of test compound at a concentration of 10 mg/kg p.o or 2 mg/kg i.v. was administered to groups of 3 female Balb C mice. At 5 min, 15 min, 60 min, 4 h, 8 h and 24 h, groups were sacrificed and whole blood samples of approximately 0.2 mL were retrieved in EDTA to give a final concentration of 0.5 mM, additionally the brains were removed.

[2] = Pharmacokinetic analysis Protocol 1 (blood and brain); conditions: female, CD1, mouse, 3 mg/kg
Protocol: (§1) The test compounds were prepared in a vehicle consisting of 4% Ethanol, 5% Tween-20, 5% polyethyleneglycol 400 in 0.15M NaCl. A single dbse of 10 mg/kg p.o. or 3 mg/kg i.v. was administered to groups of female CD1 mice (3 mice for each compound per time point). At 0 min, 4 min, 15 min, 1 h, 4 h, and 24 h groups were sacrificed and the blood and the brain were collected from each mouse for further analysis.
(§2) The brain samples were snap frozen in liquid nitrogen and stored at −20° C. A minimum of 0.2 mL of whole blood from each animal was collected in tubes containing ethylene diamine tetra-acetic acid (EDTA) as anticoagulant, thoroughly mixed, and stored at −20° C.
(§3) Analysis was performed by ASI Limited, (St George's Hospital Medical School, London). The concentration of the test compound in the blood and brain samples supplied was determined by HPLC with MS detection. Control, test compound free, blood samples were obtained from Harlan Sera-Lab Limited, (Loughborough, England). Time zero brain samples were supplied as control, test compound free, brain samples.
(§4) One hemisphere of each brain was homogenized with 5 mL water.
(§5) The control or test sample of mouse brain or blood (0.05 mL), internal standard solution (0.1 mL), 5% Zinc sulphate solution (0.5 mL), and acetone (0.5 mL) were pipetted into a 2 mL polypropylene tube (Sarstedt Limited, Beaumont Leys, Leicester, UK) and the contents were then mixed for a minimum of 5 minutes (IKA-Vibrax-VXR mixer, Merck (BDH) Limited, Poole Dorset, UK). The tubes were then centrifuged in a microfuge for a minimum of 2 minutes. The solvent layer was decanted into a 4.5 mL polypropylene tube containing sodium hydroxide (0.1M, 0.1 mL) and methyl-tert-butyl ether (MTBE, 2 mL). The tube was then mixed for a minimum of 5 minutes (IKA-Vibrax-VXR mixer) and then centrifuged at 3500 rpm for 5 minutes. The solvent layer was transferred to a 4.5 mL conical polypropylene tube, placed in a SpeedVac® and evaporated to dryness.
(§6) The dried extracts were reconstituted with 0.15 mL 80% methanol and mixed for a minimum of 5 minutes (IKA-Vibrax-VXR mixer) and centrifuged at 3500 rpm for 5 minutes. The extract was transferred to auto sampler tubes (NLG Analytical, Adelphi Mill, Bollington, Cheshire, UK) and placed into the auto-sampler tray which was set at ambient temperature. The auto-sampler was programmed to inject a 0.03 mL aliquot of each extract onto the analytical column.
(§7) The AUC for each compound in blood or in brain tissue was calculated using Kinetica 4.4 (InnaPhase Corporation), using a non-compartmental model and the trapezoidal method for AUC calculation.
(§8) The partition coefficient (Ri) for each compound after p.o. and i.v. administration was calculated as shown below:
(§9) The partition coefficient (R) for each compound after i.v. administration was calculated as shown below:

EAE = assay: Experimental allergic encephalomyelitis (EAE) model of multiple sclerosis; format: in vivo, male Lewis rats
[3] = mouse, in vivo
Protocol: as §1, §2, §3, §4, §5, §6, §7, §8, §9

U87-MG = assay: Glioma orthotopically xenografted in nude mice, MRI tumour volume; format: in vivo; conditions: 3 mg/kg/inj IV, (Q1D×3)×5W, MRI at D23, mean of 4 values
Protocol: The test compound was dissolved in ethanol (0.027 mL/mg compound) and vortexed for 20 min until the solution was clear. Ethanolic solutions were aliquoted as appropriate and stored at −20° C.
The test substance and control vehicle were administered intravenously (IV, bolus) by injection into the caudal vein of the test mice. An injection volume of 10 mL/kg was used, based on the most recent body weight of mice.
The cell line used for the study was U87-MG, a glioblastoma cell line initiated by J. Ponten from a […] glioblastoma from a person (Poten et al., 1968).
Mice were stereotaxically injected with U87-MG cells at D, 24 to 48 hours after a whole body irradiation with a γ-source (2.5 Gy, Co^60, INRA BRETENIERE, Dijon). For the stereotaxic injection of tumour cells, mice were anesthetised by an intraperitoneal injection of Ketamine 100 mg/kg (Ketamine500®, Ref 043KET204, Centravet, France) and Xylazine 5 mg/kg (Rompun®, Ref 002ROM001, Centravet, France) in 0.9% NaCl solution at 10 mL/kg/inj. […]
After tripilot acquisitions, a turboRare T2 weighted sequence was performed. […] The tumour volume was determined by manually drawing a region of interest (ROI) around the tumour in each slice and by summation of all the surfaces.
Additionally the MRI analysis was used to calculate the average calculated tumour volume per treatment group, the results are summarised in Table 13 below. […]

FKBP12 = FKBP12 (Homo sapiens, UniProt P62942); assay: In vitro FKBP12 binding assay (GdnHCl unfolding); conditions: relative to literature Kd of rapamycin 0.2 nM
Excerpt: FKBP12 reversibly unfolds in the chemical denaturant guandinium hydrochloride (GdnHCl) and the unfolding can be monitored by the change in the intrinsic fluorescence of the protein (Main et al, 1998). Ligands which specifically bind and stabilise the native state of FKBP12 shift the denaturation curve such that the protein unfolds at higher concentrations of chemical denaturant (Main et al, 1999). From the difference in stability, the ligand-binding constant can be determined using equation 1.
where ΔGapp is the apparent difference in free energy of unfolding between free and ligand-bound forms, ΔGD−N^H^2^O is the free energy of unfolding in water of free protein, [L] the concentration of ligand and kd the dissociation constant for the protein-ligand complex (Meiering et al, 1992). The free energy of unfolding can be related to the midpoint of the unfolding transition using the following equation: […]
where mD−N is a constant for a given protein and given denaturant and which is proportional to the change in degree of exposure of residues on unfolding (Tanford 1968 and Tanford 1970), and [D]50% is the concentration of denaturant corresponding to the midpoint of unfolding.
where <mD−N> is the average m-value of the unfolding transition and Δ[D]50% the difference in midpoints for the rapamycin-FKBP12 unfolding transition and unknown-ligand-FKBP12 complex unfolding transition. Under conditions where [L]>Kd, then, ΔΔGD−N, can be related to the relative Kds of the two compounds through equation 4: […]

[4] = 5 mg/kg p.o., Prophylactic regime
[5] = 5 mg/kg p.o., Therapeutic regime
[6] = 15 mg/kg p.o., Prophylactic regime
[7] = 15 mg/kg p.o., Therapeutic regime

FKBP12, sequence (P62942 whole entry, species assumed): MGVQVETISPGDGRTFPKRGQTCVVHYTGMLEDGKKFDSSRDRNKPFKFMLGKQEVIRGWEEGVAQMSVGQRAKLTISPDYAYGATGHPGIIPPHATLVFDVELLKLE

CO[C@H]1C[C@@H]2CC[C@@H](C)[C@@](O)(O2)C(=O)C(=O)N2CCCC[C@H]2C(=O)O[C@H]([C@H](C)C[C@@H]2CC[C@@H](O)[C@H](OC)C2)CC(=O)[C@H](C)/C=C(\C)[C@@H](O)[C@@H](OC)C(=O)[C@H](C)C[C@H](C)/C=C/C=C/C=C/1C [Rapamycin]
Kp ([1]; intravenous, PK protocol 2, 2 mg/kg i.v., read-out: Ri i.v. (partition coefficient)): 0.255
Kp ([1]; oral, PK protocol 2, 10 mg/kg p.o., read-out: Ri p.o. (partition coefficient)): 0.066
AUC ([1]; iv, PK protocol 2, 2 mg/kg i.v., read-out: AUCBLOOD i.v.): 24900 ng·h/mL
AUC ([1]; po, PK protocol 2, 10 mg/kg p.o., read-out: AUCBLOOD p.o.): 25200 ng·h/mL
Kp ([2]; brain / whole blood, intravenous): 1.13
AUC ([2]; whole blood, iv): 10800 ng·h/mL

COC1CC2CCC(C)C(O)(O2)C(=O)C(=O)N2CCCCC2C(=O)OC(C(C)CC2CCC(O)CC2)CC(=O)C(C)C=C(C)C(O)C(OC)C(=O)C(C)CC(C)C=CC=CC=C1C (stereo not shown) [39-desmethoxyrapamycin]
Cumulative score Mean ± St Dev. (EAE; [4]): 17 ± 4.6
Duration (days) Mean ± St Dev. (EAE; [4]): 10 ± 1.8 days
Onset Mean ± St Dev. (EAE; [4]): 12 ± 2.1
Cumulative score Mean ± St Dev. (EAE; [5]): 30 ± 3.1
Duration (days) Mean ± St Dev. (EAE; [5]): 15 ± 1.3 days
Onset Mean ± St Dev. (EAE; [5]): 10 ± 1.0
Cumulative score Mean ± St Dev. (EAE; [6]): 22 ± 22
Duration (days) Mean ± St Dev. (EAE; [6]): 10 ± 3.4 days
Onset Mean ± St Dev. (EAE; [6]): 12 ± 2.4
Cumulative score Mean ± St Dev. (EAE; [7]): 32 ± 5.7
Duration (days) Mean ± St Dev. (EAE; [7]): 16 ± 3.3 days
Onset Mean ± St Dev. (EAE; [7]): 9 ± 1.4
efficacy in the EAE model compared to cyclophosphamide (EAE; 5 and 15 mg/kg, prophylactic and therapeutic regime): equivalent efficacy in this model to cyclophosphamide
AUCBLOOD i.v. ([3]; iv, 3 mg/kg): 15444.3
AUCBRAIN i.v. ([3]; iv, 3 mg/kg): 24911.4
AUCBLOOD p.o. ([3]; po, 10 mg/kg): 16856.5
AUCBRAIN p.o. ([3]; po, 10 mg/kg): 1697.69
average calculated tumour volume, Day 23 (mm^3) (U87-MG): 1.25 mm^3
Kd (FKBP12): 0.7 nM
